≈ marks a conversion by molar mass, not a printed value. Like-named read-outs stand apart in the source and are kept apart here.
Assay: Assay (I): Determination of Solubility (96-well plate, pH 3.0-11.0, organic solvent 0-70% w/w, UV absorption at 280 nm)
Format: physicochemical
Conditions: for GLP-1 peptide concentration: Method 2 (precipitation), 5° C.; for solubility thermodynamic at 24 h: read-out: Peptide concentration after 24 h
Experimental: Assay (I): Determination of Solubility
96-Well Plate Preparation
96-well plates containing target peptide in a solid form were prepared in one of two ways:
Method 1 (evaporation): Addition of 100 μl stock solution of said peptide at a concentration of 4-6 mg/ml to each well of a 96-well half area plate (150 μl well size). Subsequently the solvent was evaporated by applying a vacuum until the solvent was completely removed.
Method 2 (precipitation): Addition of a certain volume of a stock solution of said peptide containing to each well of a 96-well half area plate followed by the addition of a certain volume of concentrated phosphoric acid to obtain a pH of 4.6 followed by addition of a certain volume of ethanol resulting in a final ethanol concentration of 20% v/v. Subsequently the plate was stored at 4° C. for 1 h and then centrifuged at 4,000 rpm for 20 min. Finally the supernatant was removed. The concentration of the stock solution was chosen in a way that the final amount of peptide after supernatant removal was >0.4 mg per well.
In both cases the stock solution was prepared by adding de-ionized water to a certain amount of powder of said peptide followed by a stepwise addition of small amounts of a concentrated sodium hydroxide solution until said peptide was completely in solution.
To determine solubility of a target peptide at different pH and organic solvent concentrations, two different buffer systems were used in independent experiments to cover the whole range from pH 3.0 to pH 11.0. Buffer system 1 covers pH 3.0-7.5 and buffer system 2 covers pH 7.5-11.0. For each buffer system 96 different solvent compositions were premixed in the following way: • 1. A low pH buffer (adjusted to either pH 3.0 or pH 7.5) and a high pH buffer (adjusted to either pH 7.5 or pH 11.0) were mixed at 8 different ratios to obtain values between pH 3.0 and pH 7.5 or pH 7.5 and pH 11.0, respectively. The total volume after mixing was 300 μl. • 2. 12 different amounts of organic solvent were then added to these buffers to obtain organic solvent (e.g. ethanol) concentrations between 0 and 70% w/w. • 3. Water was then added to obtain a total weight of 1.0 g of solvent in each well.
After preparing the 96 different solvent systems, 100 μl of each system was transferred to the 96-well plate containing the solid form of the target peptide (prepared as described in the section “96-well plate preparation”). The plate was then stored at a given temperature (between 5° C. and 70° C.) for a given time on a rotating shaker set to 400 rpm. At regular time intervals the plate was centrifuged (4,000 rpm for 10 min) and a 10 μl sample was taken from each well. The samples were then analysed by UV absorption at 280 nm for peptide quantification. Peptide concentration results are given as UV absorption at 280 nm of the sample subtracted UV absorption at 280 nm of a well comprising 10 μl water.
The buffers used were as follows: • Buffer system 1 (for the pH range from pH 3.0-7.5)
• Buffer system 2 (for the pH ranae from pH 7.5-11.0)
Solubility of liraglutide was determined using Assay (I) described herein. Liraglutide was prepared using Method 1 (evaporation) or Method 2 (precipitation) as described in subsection “96-well plate preparation”.

With `CCCCCCCCCCCCCCCC(=O)N[C@@H](CCC(=O)NCCCC[C@H](NC(=O)[C@H](C)NC(=O)[C@H](C)NC(=O)[C@H](CCC(N)=O)NC(=O)CNC(=O)[C@H](CCC(=O)O)NC(=O)[C@H](CC(C)C)NC(=O)[C@H](Cc1ccc(O)cc1)NC(=O)[C@H](CO)NC(=O)[C@H](CO)NC(=O)[C@@H](NC(=O)[C@H](CC(=O)O)NC(=O)[C@H](CO)NC(=O)[C@@H](NC(=O)[C@H](Cc1ccccc1)NC(=O)[C@@H](NC(=O)CNC(=O)[C@H](CCC(=O)O)NC(=O)[C@H](C)NC(=O)[C@@H](N)Cc1cnc[nH]1)[C@@H](C)O)[C@@H](C)O)C(C)C)C(=O)N[C@@H](CCC(=O)O)C(=O)N[C@@H](Cc1ccccc1)C(=O)N[C@H](C(=O)N[C@@H](C)C(=O)N[C@@H](Cc1c[nH]c2ccccc12)C(=O)N[C@@H](CC(C)C)C(=O)N[C@H](C(=O)N[C@@H](CCCNC(=N)N)C(=O)NCC(=O)N[C@@H](CCCNC(=N)N)C(=O)NCC(=O)O)C(C)C)[C@@H](C)CC)C(=O)O` [liraglutide, Arg34,Lys26-(N-epsilon-(gamma-L-glutamyl(N-alfa-hexadecanoyl)))-GLP-1(7-37)] the GLP-1 peptide concentration (MeCN 63.6% w/w, pH 10.00, 5 min, before removal of outliers) was 0.4 mg/mL, the GLP-1 peptide concentration (MeCN 63.6% w/w, pH 10.00, 180 min, after removal of outliers) was 2.9 mg/mL and the GLP-1 peptide concentration (MeCN 63.6% w/w, pH 10.00, 180 min, before removal of outliers) was 2.9 mg/mL. The GLP-1 peptide concentration (MeCN 63.6% w/w, pH 10.00, 24 h, after removal of outliers) was 1.0 mg/mL, the GLP-1 peptide concentration (MeCN 63.6% w/w, pH 10.00, 24 h, before removal of outliers) was 1.0 mg/mL and the GLP-1 peptide concentration (MeCN 63.6% w/w, pH 10.50, 5 min, after removal of outliers) was 0.6 mg/mL. It also gave a GLP-1 peptide concentration (MeCN 63.6% w/w, pH 10.50, 5 min, before removal of outliers) of 0.6 mg/mL, a GLP-1 peptide concentration (MeCN 63.6% w/w, pH 10.50, 180 min, after removal of outliers) of 3.4 mg/mL and a GLP-1 peptide concentration (MeCN 63.6% w/w, pH 10.50, 180 min, before removal of outliers) of 3.4 mg/mL. For the same molecule, the GLP-1 peptide concentration (MeCN 63.6% w/w, pH 10.50, 24 h, after removal of outliers) was 1.3 mg/mL, the GLP-1 peptide concentration (MeCN 63.6% w/w, pH 10.50, 24 h, before removal of outliers) was 1.3 mg/mL and the GLP-1 peptide concentration (MeCN 63.6% w/w, pH 11.00, 5 min, after removal of outliers) was 0.5 mg/mL. For the same molecule, the GLP-1 peptide concentration (MeCN 63.6% w/w, pH 11.00, 5 min, before removal of outliers) was 0.5 mg/mL, the GLP-1 peptide concentration (MeCN 63.6% w/w, pH 11.00, 180 min, after removal of outliers) was 3.2 mg/mL and the GLP-1 peptide concentration (MeCN 63.6% w/w, pH 11.00, 180 min, before removal of outliers) was 3.2 mg/mL. It also gave a GLP-1 peptide concentration (MeCN 63.6% w/w, pH 11.00, 24 h, after removal of outliers) of 1.0 mg/mL, a GLP-1 peptide concentration (MeCN 63.6% w/w, pH 11.00, 24 h, before removal of outliers) of 1.0 mg/mL and a GLP-1 peptide concentration (MeCN 70.0% w/w, pH 7.50, 5 min, before removal of outliers) of 0.3 mg/mL. The GLP-1 peptide concentration (MeCN 70.0% w/w, pH 7.50, 180 min, before removal of outliers) was 0.7 mg/mL, the GLP-1 peptide concentration (MeCN 70.0% w/w, pH 7.50, 24 h, before removal of outliers) was 1.6 mg/mL and the GLP-1 peptide concentration (MeCN 70.0% w/w, pH 8.00, 5 min, after removal of outliers) was 0.4 mg/mL. The GLP-1 peptide concentration (MeCN 70.0% w/w, pH 8.00, 5 min, before removal of outliers) was 0.4 mg/mL, the GLP-1 peptide concentration (MeCN 70.0% w/w, pH 8.00, 180 min, after removal of outliers) was 1.0 mg/mL and the GLP-1 peptide concentration (MeCN 70.0% w/w, pH 8.00, 180 min, before removal of outliers) was 1.0 mg/mL. For the same molecule, the GLP-1 peptide concentration (MeCN 70.0% w/w, pH 8.00, 24 h, after removal of outliers) was 2.5 mg/mL, the GLP-1 peptide concentration (MeCN 70.0% w/w, pH 8.00, 24 h, before removal of outliers) was 2.5 mg/mL and the GLP-1 peptide concentration (MeCN 70.0% w/w, pH 8.50, 5 min, after removal of outliers) was 0.4 mg/mL. The GLP-1 peptide concentration (MeCN 70.0% w/w, pH 8.50, 5 min, before removal of outliers) was 0.4 mg/mL, the GLP-1 peptide concentration (MeCN 70.0% w/w, pH 8.50, 180 min, after removal of outliers) was 1.4 mg/mL and the GLP-1 peptide concentration (MeCN 70.0% w/w, pH 8.50, 180 min, before removal of outliers) was 1.4 mg/mL. It also gave a GLP-1 peptide concentration (MeCN 70.0% w/w, pH 8.50, 24 h, after removal of outliers) of 3.3 mg/mL, a GLP-1 peptide concentration (MeCN 70.0% w/w, pH 8.50, 24 h, before removal of outliers) of 3.3 mg/mL and a GLP-1 peptide concentration (MeCN 70.0% w/w, pH 9.00, 5 min, after removal of outliers) of 0.4 mg/mL. It also gave a GLP-1 peptide concentration (MeCN 70.0% w/w, pH 9.00, 5 min, before removal of outliers) of 0.4 mg/mL, a GLP-1 peptide concentration (MeCN 70.0% w/w, pH 9.00, 180 min, after removal of outliers) of 1.5 mg/mL and a GLP-1 peptide concentration (MeCN 70.0% w/w, pH 9.00, 180 min, before removal of outliers) of 1.5 mg/mL. The GLP-1 peptide concentration (MeCN 70.0% w/w, pH 9.00, 24 h, after removal of outliers) was greater than 4.0 mg/mL, the GLP-1 peptide concentration (MeCN 70.0% w/w, pH 9.00, 24 h, before removal of outliers) was greater than 4.0 mg/mL and the GLP-1 peptide concentration (MeCN 70.0% w/w, pH 9.50, 5 min, after removal of outliers) was 0.5 mg/mL. It also gave a GLP-1 peptide concentration (MeCN 70.0% w/w, pH 9.50, 5 min, before removal of outliers) of 0.5 mg/mL, a GLP-1 peptide concentration (MeCN 70.0% w/w, pH 9.50, 180 min, before removal of outliers) of 1.9 mg/mL and a GLP-1 peptide concentration (MeCN 70.0% w/w, pH 9.50, 24 h, before removal of outliers) greater than 4.0 mg/mL. For the same molecule, the solubility thermodynamic at 24 h (aqueous buffer / organic solvent mixture, pH 3.1, aqueous buffer, DMF 0.0% w/w, pH 3.1, RT, Method 1 (evaporation)) was 300 µg/mL (≈ 80 µM), the solubility thermodynamic at 24 h (aqueous buffer / organic solvent mixture, pH 4.8, aqueous buffer, DMF 0.0% w/w, pH 4.8, RT, Method 1 (evaporation)) was 200 µg/mL (≈ 53.3 µM) and the solubility thermodynamic at 24 h (aqueous buffer / organic solvent mixture, pH 5.8, aqueous buffer, DMF 0.0% w/w, pH 5.8, RT, Method 1 (evaporation)) was 1500 µg/mL (≈ 400 µM). For the same molecule, the solubility thermodynamic at 24 h (aqueous buffer / organic solvent mixture, pH 6.7, aqueous buffer, DMF 0.0% w/w, pH 6.7, RT, Method 1 (evaporation)) was 2200 µg/mL (≈ 586 µM), the solubility thermodynamic at 24 h (pH 3, aqueous buffer, MeCN 0.0% w/w, pH 3.0, RT, Method 1) was 100 µg/mL (≈ 26.7 µM) and the solubility thermodynamic at 24 h (pH 3.6, aqueous buffer, MeCN 0.0% w/w, pH 3.6, RT, Method 1) was 100 µg/mL (≈ 26.7 µM). For the same molecule, the solubility thermodynamic at 24 h (pH 4.9, aqueous buffer, MeCN 0.0% w/w, pH 4.9, 5° C., Method 1) was 100 µg/mL (≈ 26.7 µM), the solubility thermodynamic at 24 h (pH 6.2, aqueous buffer, MeCN 0.0% w/w, pH 6.2, 5° C., Method 1) was 100 µg/mL (≈ 26.7 µM) and the solubility thermodynamic at 24 h (pH 6.2, aqueous buffer, MeCN 0.0% w/w, pH 6.2, RT, Method 1) was 500 µg/mL (≈ 133 µM). The solubility thermodynamic at 24 h (premixed buffer/organic solvent/water solvent system, pH 4.3, aqueous buffer, MeCN 0.0% w/w, pH 4.3, 5° C., Method 1) was 200 µg/mL (≈ 53.3 µM).

— patent US20210261642A1, “SOLUBILITY OF GLP-1 PEPTIDE” (Novo Nordisk A/S, priority 2017, published 2021)
